Data as given in ChEMBL document CHEMBL1201862, “PubChem BioAssay data set” (2004).
The source made the active and inactive calls.

Key:
Cytochrome P450 2C19 = Cytochrome P450 2C19 (Homo sapiens, UniProt P33261); assay: qHTS Assay for Inhibitors and Substrates of Cytochrome P450 2C19. [Related pubchem assays: 410 ]; type: ADME; conditions: read-out: Potency
Cytochrome P450 2C9 = Cytochrome P450 2C9 (Homo sapiens, UniProt P11712); conditions: Potency
[1] = biological target: Solute carrier family 12 member 2/member 5 (Homo sapiens, UniProt P55011+Q9H2X9); assay: KCC2 and NKCC1 inhibition by rubidium flux, cell-based, NKCC1 counter-screen (AID 1734); type: functional, HEK293
Vero = assay: Vero cell viability after compound exposure – synthesized analogs, set II, cytotoxicity control for West Nile virus antiviral project, SAR follow-up (AID 2402); type: functional; conditions: Chlorocebus sabaeus
Genome polyprotein = Genome polyprotein (Hepatitis C virus, UniProt Q2Q167); assay: disruption of hepatitis C core self-association – biochemical, TR-FRET, dose response (AID 2159); set-up: species or system Hepacivirus hominis;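 further: blocks dimerization of HCV core protein measured by TR-FRET between tagged core106 pairs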
[2] = viability loss in THP-1 monocytes – THP-1 cells, cytotoxicity control for Vif-APOBEC3G degradation inhibitor project, dose response (AID 1117359); type: functional; conditions: THP-1
[3] = biological target: T1, Carboxy-terminal domain RNA polymerase II polypeptide A small phosphatase 1 (Homo sapiens, UniProt Q9GZU7); assay: CTDSP1 inhibitors, concentration-response, biochemical, absorbance readout, ultra-high-throughput screen actives (AID 540297); type: functional
T1 sequence (Q9GZU7 whole entry): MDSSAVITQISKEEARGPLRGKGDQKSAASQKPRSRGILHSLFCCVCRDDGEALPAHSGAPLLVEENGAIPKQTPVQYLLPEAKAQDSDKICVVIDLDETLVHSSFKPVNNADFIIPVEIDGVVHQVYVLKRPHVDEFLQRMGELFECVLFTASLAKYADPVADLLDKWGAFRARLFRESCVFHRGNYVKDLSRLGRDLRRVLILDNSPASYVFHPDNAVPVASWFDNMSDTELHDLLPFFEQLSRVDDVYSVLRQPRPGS

[4] = biological target: Inward rectifier potassium channel 2 (Mus musculus, UniProt P35561); assay: Manual electrophysiological patch clamp assay for SAR compounds that inhibit/block inward-rectifying potassium ion channel Kir2.1. [Related pubchem assays: 1843 (Summary assay for Kir2.1 inhibitor assays.), 1672 (Primary HTS of 305616 compounds where 2592 were identified as active.)]; type: functional
NADPH oxidase 1 = NADPH oxidase 1 (Homo sapiens, UniProt Q9Y5S8); type: functional, cell-based;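 further: Cell-based assay with luminescence read-out, IC50 derived from inhibitor dose-response curves; intracellular ROS from endogenous NOX1 in intact HT29 colon cancer cells; potency of inhibitors that lower the ROS luminescence signal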
[5] = alpha-synuclein stem-loop luciferase translation blockers – H4 neuroglioma cells, luminescence, confirmation (AID 1988); type: functional, cell-based
[6] = biological target: T2, Sphingosine 1-phosphate receptor 1 (Homo sapiens, UniProt P21453); type: functional
[7] = Luminescence Cell-Based Dose Response HTS to Identify Inhibitors of 5'UTR Stem-Loop Driven Prion Protein mRNA Translation in H4 Neuroglioblastoma Cells. [Related pubchem assays: 1827 (Project Summary), 1813 (Primary HTS)]; type: functional
[8] = biological target: T3, Sphingosine 1-phosphate receptor 4 (Homo sapiens, UniProt O95977); assay: Fluorescence dose response cell-based high throughput screening assay for antagonists of the Sphingosine 1-Phosphate Receptor 4 (S1P4). [Related pubchem assays: 1524 (Confirmation in triplicates.), 1510 (Primary screen.)]; type: functional
T3 sequence (O95977 whole entry): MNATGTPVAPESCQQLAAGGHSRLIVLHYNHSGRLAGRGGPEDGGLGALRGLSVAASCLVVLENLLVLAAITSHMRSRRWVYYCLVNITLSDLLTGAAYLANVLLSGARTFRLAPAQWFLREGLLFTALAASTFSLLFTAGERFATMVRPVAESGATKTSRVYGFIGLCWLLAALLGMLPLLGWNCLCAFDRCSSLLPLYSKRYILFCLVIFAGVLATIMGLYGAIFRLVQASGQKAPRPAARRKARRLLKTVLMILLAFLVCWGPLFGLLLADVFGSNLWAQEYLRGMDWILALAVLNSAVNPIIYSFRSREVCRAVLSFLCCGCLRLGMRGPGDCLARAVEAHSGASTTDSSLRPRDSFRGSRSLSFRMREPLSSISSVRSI

Paired box protein Pax-8 = Paired box protein Pax-8 (Homo sapiens, UniProt Q06710); assay: PAX8 transcriptional activity inhibition in RMG-I – RMG-I cells, luciferase, cherry-pick, dose response (AID 687027); type: functional, cell-based;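 further: luciferase reporter driven by Pax8 target thyroperoxidase promoter measured by SteadyGlo luminescence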
[9] = NIH3T3 cell viability loss – ATP luminescence, mouse fibroblasts, counter-screen, dose response (AID 2010); type: functional, cell-based;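 further: cells exposed to compound for about 90 hours before reading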
Streptokinase A = biological target: T4, Streptokinase A (Streptococcus pyogenes serotype M1, UniProt P10520); assay: viability-normalized secreted streptokinase activity reduction – plasminogen activation absorbance, OD405, dose response (AID 1914); type: functional, Streptococcus pyogenes M1 GAS;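 further: secreted streptokinase activity via plasminogen activation per viability signal from cell pellet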
T4 sequence (P10520 whole entry): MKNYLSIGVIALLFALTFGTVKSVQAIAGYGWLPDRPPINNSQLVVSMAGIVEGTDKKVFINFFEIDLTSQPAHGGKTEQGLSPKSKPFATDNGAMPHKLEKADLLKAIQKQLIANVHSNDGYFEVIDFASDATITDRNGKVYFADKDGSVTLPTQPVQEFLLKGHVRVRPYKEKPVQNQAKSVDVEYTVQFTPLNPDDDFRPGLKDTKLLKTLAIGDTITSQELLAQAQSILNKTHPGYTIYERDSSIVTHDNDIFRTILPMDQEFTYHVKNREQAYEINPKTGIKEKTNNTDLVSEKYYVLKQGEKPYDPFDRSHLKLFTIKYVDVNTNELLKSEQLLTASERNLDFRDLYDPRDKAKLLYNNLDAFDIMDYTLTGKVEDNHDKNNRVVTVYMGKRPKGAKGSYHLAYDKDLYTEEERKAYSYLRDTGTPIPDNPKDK

[10] = Trypanosoma cruzi growth suppression in host cells – NIH3T3 host cells, beta-gal luminescence, confirmation (AID 2044); type: functional, cell-based;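 further: intracellular parasites grown in NIH/3T3 mouse fibroblasts as host cells; luminescent beta-galactosidase reporter signal from transgenic T. cruzi replicating inside host cells; inhibitors lower the luminescence signal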
[11] = biological target: T5, Sphingosine 1-phosphate receptor 2 (Homo sapiens, UniProt O95136); assay: Late stage counterscreen assay for S1P4 antagonists: Fluorescence dose response cell-based screening assay for antagonists of the Sphingosine 1-Phosphate Receptor 2 (S1P2). [Related pubchem assays (depositor defined):AID1510, AID1524, AID1692, AID1853, AID2332, AID489009, AID489017]; type: functional
[12] = biological target: Sphingosine 1-phosphate receptor 5 (Homo sapiens, UniProt Q9H228); assay: Late stage counterscreen assay for S1P4 antagonists: Fluorescence dose response cell-based screening assay for antagonists of the Sphingosine 1-Phosphate Receptor 5 (S1P5). [Related pubchem assays (depositor defined):AID1510, AID1524, AID1692, AID1853, AID2332, AID489009, AID489017]; type: functional
[13] = biological target: T3, Sphingosine 1-phosphate receptor 4; assay: Late stage fluorescence dose response cell-based screening assay for antagonists of the Sphingosine 1-Phosphate Receptor 4 (S1P4). [Related pubchem assays: 1524 (Confirmation screen (S1P4 antagonists).), 1510 (Primary screen (S1P4 antagonists).), 1853 (Summary AID (S1P4 antagonists).), 1692 (Dose response screen (S1P4 antagonists).)]; type: functional
[14] = biological target: Sphingosine 1-phosphate receptor 3 (Homo sapiens, UniProt Q99500); assay: Late stage counterscreen assay for S1P4 antagonists: Fluorescence dose response cell-based screening assay for antagonists of the Sphingosine 1-Phosphate Receptor 3 (S1P3). [Related pubchem assays (depositor defined):AID1510, AID1524, AID1692, AID1853, AID2332, AID489009, AID489017]; type: functional
[15] = luciferase reporter signal suppression in cells – H4 neuroglioma cells, luminescence, dose response (AID 1990); type: functional, cell-based
[16] = reduction of Shn3 3'UTR-driven luciferase in osteoblasts – cell-based, Clone20 osteoblasts, firefly luciferase, cherry-picked, dose response (AID 624132); type: functional;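 further: firefly luciferase luminescence from reporter carrying the Shn3 3'UTR in osteoblasts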
[17] = loss of viability in HepG2 cells – cell-based, CellTiter-Glo, cherry-picked, cytotoxicity control for Shn3 inhibitor project, dose response (AID 624134); type: functional
[18] = biological target: T2, Sphingosine 1-phosphate receptor 1; assay: Late stage counterscreen assay for S1P4 antagonists: Fluorescence dose response cell-based screening assay for antagonists of the Sphingosine 1-Phosphate Receptor 1 (S1P1). [Related pubchem assays (depositor defined):AID1510, AID1524, AID1692, AID1853, AID2332, AID489009, AID489017]; type: functional
Streptococcus = assay: GAS UMAA2166 growth inhibition – luminescence, BacTiterGlo, counter-screen for streptokinase expression inhibitor project, dose response (AID 1915); type: functional, organism-based;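 further: potency for reduction of bacterial viability or growth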
[19] = system: Streptococcus sp. 'group A'; assay: Streptococcus pyogenes SK(-)GAS viability under kanamycin – luminescence, BacTiterGlo, confirmation, counter-screen for streptokinase expression inhibitor project, dose response (AID 1900); type: functional, organism-based
[20] = biological target: T5, Sphingosine 1-phosphate receptor 2; assay: Dose Response Cell Based Assay for Agonists of the S1P2 Receptor of Purchased Analogues. [Related pubchem assays: 729, 843, 854, 736 ]; type: functional

T2 sequence (P21453 whole entry): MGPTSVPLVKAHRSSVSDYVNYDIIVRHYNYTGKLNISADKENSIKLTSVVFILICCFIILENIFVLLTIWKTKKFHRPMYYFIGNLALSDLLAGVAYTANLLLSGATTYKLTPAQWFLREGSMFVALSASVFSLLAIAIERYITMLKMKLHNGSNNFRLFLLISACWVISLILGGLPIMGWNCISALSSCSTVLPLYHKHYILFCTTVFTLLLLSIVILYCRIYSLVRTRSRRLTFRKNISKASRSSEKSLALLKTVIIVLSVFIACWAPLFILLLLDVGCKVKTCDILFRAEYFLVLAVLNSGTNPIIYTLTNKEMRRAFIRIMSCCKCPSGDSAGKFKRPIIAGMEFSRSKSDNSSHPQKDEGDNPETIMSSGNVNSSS
T5 sequence (O95136 whole entry): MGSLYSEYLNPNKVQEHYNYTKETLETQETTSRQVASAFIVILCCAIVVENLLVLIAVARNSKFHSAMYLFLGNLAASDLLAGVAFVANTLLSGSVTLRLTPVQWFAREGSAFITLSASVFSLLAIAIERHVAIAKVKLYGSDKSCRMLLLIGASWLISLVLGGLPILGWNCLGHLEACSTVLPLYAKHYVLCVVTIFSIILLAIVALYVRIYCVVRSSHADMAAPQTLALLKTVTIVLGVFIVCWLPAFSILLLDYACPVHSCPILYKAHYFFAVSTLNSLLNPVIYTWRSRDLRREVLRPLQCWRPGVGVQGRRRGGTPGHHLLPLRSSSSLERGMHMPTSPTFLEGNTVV
Genome polyprotein, sequence (Q2Q167 whole entry): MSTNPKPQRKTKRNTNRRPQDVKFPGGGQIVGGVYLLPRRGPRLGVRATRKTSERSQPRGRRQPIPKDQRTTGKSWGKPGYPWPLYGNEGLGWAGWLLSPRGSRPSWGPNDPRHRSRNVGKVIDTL
NADPH oxidase 1, sequence (Q9Y5S8 whole entry): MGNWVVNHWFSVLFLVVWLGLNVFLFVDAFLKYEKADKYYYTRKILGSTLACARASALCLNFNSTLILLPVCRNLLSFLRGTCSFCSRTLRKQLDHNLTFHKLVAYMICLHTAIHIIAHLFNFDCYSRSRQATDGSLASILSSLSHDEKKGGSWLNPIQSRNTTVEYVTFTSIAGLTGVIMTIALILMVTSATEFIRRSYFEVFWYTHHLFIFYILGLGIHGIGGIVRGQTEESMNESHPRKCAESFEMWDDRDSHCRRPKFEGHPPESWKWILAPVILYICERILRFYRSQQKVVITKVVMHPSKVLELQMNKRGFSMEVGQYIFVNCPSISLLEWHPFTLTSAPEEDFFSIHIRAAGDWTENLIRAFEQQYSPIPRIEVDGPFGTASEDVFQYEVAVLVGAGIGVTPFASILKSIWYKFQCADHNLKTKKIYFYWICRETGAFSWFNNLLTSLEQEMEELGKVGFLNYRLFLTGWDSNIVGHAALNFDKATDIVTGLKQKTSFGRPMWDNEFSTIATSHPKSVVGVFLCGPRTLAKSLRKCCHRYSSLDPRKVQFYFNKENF
Inward rectifier potassium channel 2, sequence (P35561 whole entry): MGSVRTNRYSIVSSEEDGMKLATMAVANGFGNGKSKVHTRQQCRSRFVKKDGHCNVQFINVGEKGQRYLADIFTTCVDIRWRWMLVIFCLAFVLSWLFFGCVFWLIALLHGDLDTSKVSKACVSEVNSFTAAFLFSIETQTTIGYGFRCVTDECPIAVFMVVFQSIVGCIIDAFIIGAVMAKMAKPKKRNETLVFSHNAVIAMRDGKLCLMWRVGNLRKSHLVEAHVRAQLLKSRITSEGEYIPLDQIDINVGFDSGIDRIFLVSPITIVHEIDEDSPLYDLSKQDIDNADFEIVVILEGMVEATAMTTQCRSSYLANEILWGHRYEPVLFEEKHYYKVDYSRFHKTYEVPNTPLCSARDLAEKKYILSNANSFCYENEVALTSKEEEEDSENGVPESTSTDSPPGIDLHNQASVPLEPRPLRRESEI
Sphingosine 1-phosphate receptor 5, sequence (Q9H228 whole entry): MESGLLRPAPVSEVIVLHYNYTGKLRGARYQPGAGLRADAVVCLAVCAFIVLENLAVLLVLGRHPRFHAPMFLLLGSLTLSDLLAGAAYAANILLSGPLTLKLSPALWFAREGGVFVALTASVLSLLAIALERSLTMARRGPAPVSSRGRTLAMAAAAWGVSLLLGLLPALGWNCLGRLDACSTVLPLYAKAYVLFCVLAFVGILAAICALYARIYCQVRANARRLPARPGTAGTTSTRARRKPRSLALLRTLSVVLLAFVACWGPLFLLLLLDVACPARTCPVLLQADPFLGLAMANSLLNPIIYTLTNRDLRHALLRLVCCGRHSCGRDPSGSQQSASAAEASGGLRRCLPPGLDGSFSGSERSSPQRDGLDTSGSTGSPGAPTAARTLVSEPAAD
Cytochrome P450 2C9, sequence (P11712 whole entry): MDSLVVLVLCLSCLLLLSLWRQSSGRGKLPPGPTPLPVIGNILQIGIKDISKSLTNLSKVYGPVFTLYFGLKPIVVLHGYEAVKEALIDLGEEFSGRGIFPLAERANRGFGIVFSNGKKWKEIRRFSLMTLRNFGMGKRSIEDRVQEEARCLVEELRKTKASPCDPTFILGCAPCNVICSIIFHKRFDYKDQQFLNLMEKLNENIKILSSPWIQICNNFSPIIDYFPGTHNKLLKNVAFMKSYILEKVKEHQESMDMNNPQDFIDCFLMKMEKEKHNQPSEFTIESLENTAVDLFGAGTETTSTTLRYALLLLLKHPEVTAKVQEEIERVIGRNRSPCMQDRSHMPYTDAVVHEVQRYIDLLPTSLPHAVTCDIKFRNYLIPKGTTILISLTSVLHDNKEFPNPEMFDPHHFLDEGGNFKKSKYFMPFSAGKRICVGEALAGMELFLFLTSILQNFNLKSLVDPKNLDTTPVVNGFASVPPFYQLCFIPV
Paired box protein Pax-8, sequence (Q06710 whole entry): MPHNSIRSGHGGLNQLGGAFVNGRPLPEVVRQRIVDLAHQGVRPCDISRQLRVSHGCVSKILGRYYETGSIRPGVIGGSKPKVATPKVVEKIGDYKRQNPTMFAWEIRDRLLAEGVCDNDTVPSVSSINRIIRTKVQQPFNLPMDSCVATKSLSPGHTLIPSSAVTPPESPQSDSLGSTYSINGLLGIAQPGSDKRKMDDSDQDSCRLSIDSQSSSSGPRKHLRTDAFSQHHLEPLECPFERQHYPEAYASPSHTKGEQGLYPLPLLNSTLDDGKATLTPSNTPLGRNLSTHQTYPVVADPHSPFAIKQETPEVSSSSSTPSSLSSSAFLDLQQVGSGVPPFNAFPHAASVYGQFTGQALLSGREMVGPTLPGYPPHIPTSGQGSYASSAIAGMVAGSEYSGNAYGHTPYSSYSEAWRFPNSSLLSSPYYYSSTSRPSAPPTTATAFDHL
Sphingosine 1-phosphate receptor 3, sequence (Q99500 whole entry): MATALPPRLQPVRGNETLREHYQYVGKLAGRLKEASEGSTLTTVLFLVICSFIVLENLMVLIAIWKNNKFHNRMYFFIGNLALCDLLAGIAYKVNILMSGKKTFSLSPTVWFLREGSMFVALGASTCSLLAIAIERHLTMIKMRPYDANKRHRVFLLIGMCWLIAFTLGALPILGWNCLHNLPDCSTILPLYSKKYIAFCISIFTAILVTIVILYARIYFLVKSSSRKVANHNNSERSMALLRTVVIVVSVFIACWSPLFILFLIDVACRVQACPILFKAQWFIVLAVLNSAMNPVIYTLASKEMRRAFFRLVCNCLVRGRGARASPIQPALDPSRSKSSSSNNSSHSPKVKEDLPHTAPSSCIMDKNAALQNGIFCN
Cytochrome P450 2C19, sequence (P33261 whole entry): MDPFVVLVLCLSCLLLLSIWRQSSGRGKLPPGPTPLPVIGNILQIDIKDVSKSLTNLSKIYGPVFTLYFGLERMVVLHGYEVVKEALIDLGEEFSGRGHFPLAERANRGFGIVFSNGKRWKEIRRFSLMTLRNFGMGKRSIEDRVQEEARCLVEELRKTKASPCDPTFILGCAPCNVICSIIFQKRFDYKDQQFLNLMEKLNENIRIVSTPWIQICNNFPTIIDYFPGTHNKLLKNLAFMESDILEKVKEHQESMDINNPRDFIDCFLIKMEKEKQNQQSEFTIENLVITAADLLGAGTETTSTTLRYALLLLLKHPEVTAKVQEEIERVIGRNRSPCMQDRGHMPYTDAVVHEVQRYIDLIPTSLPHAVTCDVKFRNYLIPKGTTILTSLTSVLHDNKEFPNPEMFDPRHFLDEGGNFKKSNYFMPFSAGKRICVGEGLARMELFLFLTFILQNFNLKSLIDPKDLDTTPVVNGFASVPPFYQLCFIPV

## CC1=C(\C=C/C(C)=C/C=C\C(C)=C\C(=O)Nc2ccc(O)cc2)C(C)(C)CCC1
Cytochrome P450 2C19
  AC50: 31.6 µM (inconclusive)
Cytochrome P450 2C9
  AC50: 7.94 µM (inconclusive)

## O=C(O)CCn1c(SCc2cccc3ccccc23)nc2ccccc21
[1]
  IC50: 36 µM (active)

## O=c1c2cc([N+](=O)[O-])ccc2nc2n1CCC2
Vero
  CC50: > 100 µM (active)

## CN(CC(=O)Nc1cccc(F)c1)C(=O)c1cccc(-n2cccc2)c1
Genome polyprotein
  IC50: > 49.8 µM (not active)
[2]
  CC50: > 40 µM (active)
[3]
  IC50: 6.19 µM (active)

## COc1ccc(CNCc2ccccc2Cl)cc1
[4]
  IC50: 13.3 µM (active)

## COc1ccc(NC(=O)Nc2ccc3c(c2)CCN3C(C)=O)cc1
NADPH oxidase 1
  IC50: > 17 µM (not active)

## O=C(Nc1ccccc1)Nc1cc(OCC(F)(F)F)cc(OCC(F)(F)F)c1
[5]
  EC50: 6.09 µM (active)
[6]
  IC50: > 49.8 µM (not active)
[7]
  EC50: 7.18 µM (active)
[8]
  IC50: 0.26 µM (active)
Paired box protein Pax-8
  AC50: 6.93 µM (active)
[9]
  EC50: < 6 µM (inconclusive)
Streptokinase A
  EC50: 18.1 µM (active)
[10]
  EC50: 0.719 µM (active)
[11]
  IC50: 2.35 µM (active)
[12]
  IC50: 1.3 µM (active)
[13]
  IC50: 0.0827 µM (active)
[14]
  IC50: 1.68 µM (active)
[15]
  EC50: 6.81 µM (active)
[16]
  AC50: 6.4 µM (active)
[17]
  AC50: 6.97 µM (active)
[18]
  IC50: > 25 µM (inactive)
Streptococcus
  EC50: 9.63 µM (active)
[19]
  EC50: 4.56 µM (active)

## CCNC(=O)CN(CC)CC(=O)c1cc(C)n(Cc2ccccc2)c1C
[20]
  EC50: > 30 µM (not active)
